# Reference: US5157032A, “Mixed ligand complexes and uses thereof as binding agents and probes to DNA” (The Trustees of Columbia University In The City of New York, priority 1990, dated 1992)
# Where “and” joins values, the source holds several entries; their conditions need not be identical. Identical values can stand only once. Entries after “also recorded” stand apart in the source; their conditions may differ. Like-named read-outs stand apart in the source and are kept apart here.
# Assays:
# HIV = format: cell-based
# Description: The procedure used For testing agents active against (HIV) is designed to detect agents acting at any stage of the virus reproductive cycle. The assay basically involves the killing of T4 lympnocytes by HIV. Small amounts of HIV are added to cells, and at least two complete cycles of virus reproduction are necessary to obtain the required cell killing. […] The system is automated in several ceatures to accomodate large numbers of candidate agents, and is generally designed to detect anti-HIV activity. […]. Also, while every attempt has been made to reduce variability, precise values for EC50, IC50, and Therapeautic Index are not possible. All tests are compared with a positive (AZT-treated) control done at the same time under identical conditions.
# (§1) 1. […] lymphocytes (CEM cell line) are exposed to HIV at a virus to cell ratio approximately 0.05, and plated along with noninfected control cells in 96-well microtiter plates.
# (§2) 2. Candidate agent is dissolved in dimethyl sulfoxide (unless otherwose instructed), then diluted 1:200 in cell culture medium. Further dilutions (half-log10) are prepared before adding to an equal volume of medium containing either infected or noninfected cells.
# (§3) 3. Cultures are incubated at 37° in a 5% carbon dioxide atmosphere for 6 or 7 days.
# (§4) 4. The tetrazolium salt, XTT, is added to all wells, and cultures are incubated to allow formazan color development by viable cells.
# (§5) 5. Individual wells are analyzed spectrophotometrically to quantitate formazan production, and in addition are viewed microscopically for detection of viable cells and confirmation of protective activity.
# (§6) 6. Drug-treated virus-infected cells are compared with drug-treated noninfected cells and with other appropirate controls (untreated infected and untreated noninfected cells, drug-containing wells without cells, etc.) on the same plate.
# 7. Data are reviewed in comparison with other tests done at the same time, and a determinatin about activity is made.
# Several complexes were tested for use as agents active against (HIV). […]
# (§7) The Graphic Results Summary Section: FIGS. 23-33 display a plot of Log 10 of the sample's concentration (as μg/mL or molar) against the measured test values expressed as a percentage of uninfected, untreated control values. The solid line connecting the diamond symbols depicts the percentage of surviving HIV-infected cells treated with your sample (at the indicated onccentration) relative to uninfected, untreated cotrols. This line expressed the in-vitro anti-HIV activity of your sample. The dashed line connecting the square symbols depicts the percentage of surviving uninfected cells treated with your sample relative to the same uninfected, untreated controls. This line expresses the in-vitro growth inhibitory properties of your sample. The viral cytophathic effect in this particular experiment is indicated by a dotted reference line. […] Values of this parameter less than 50% are considered acceptable in the current protocol. Reference lines at 0% and 50% are depicted as alternating dots and dashes.
# [1] = test system: CEM cell line (T4 lymphocytes); assay: Growth inhibition of uninfected CEM cells in the anti-HIV screen (XTT); format: cell-based
# Description: as §1, §2, §3, §4, §5, §6, §7
# calf thymus DNA [2] = assay: Equilibrium dialysis of racemic complexes against calf thymus DNA (Scatchard, dialysate CD); format: binding; parameters: Km × 10) equilibrium dialysis (intrinsic binding constant Kb): scale not given here; settings: for Site size: fit to McGhee and von Hippel equation; for binding affinity for DNA: comparative; for Km × 10) equilibrium dialysis (intrinsic binding constant Kb): 5 mM Tris, 50 mM NaCl, pH 7.5, standard deviation in parentheses
# Description: Equilibrium Dialysis: Equlibrium dialysis of the reacemic metal complexes was perforemd against calf-thymus DNA using procedures described previously. (74) The buffer used was 5 mM Tris, 50 mM NaCl at pH 7.5. Samples were agitated on a shaker bath during equilibration which occurred after three to five days, as determined by control samples containing no DNA. After equilibration, volumes of liquid inside and outside the dialysis bags were determined (approximately 1 and 3 mls, respectively) and circular dichroism of the dialysate was meaxured on a Jasco J-40 spectropolarimeter. Final ruthenium concentration inside and outside the bags were measured by visible absorbance. Data anaylsis was performed on a VAX-780 using non-linear least squares analysis.
# Equilibrium Dialysis: Equilibrium binding constants for the metal complexes with DNA may be determined classically by equilibrium dialysis. Calf thymus DNA was dialyzed against the series of mixed ligand complexes using a broad range of ruthenium concentrations. […] The results have been plotted according to Scatchard (88), where r is the ratio of bound metal to DNA-phosphate concentration, and cf is the concentration of free metal complex. The data were fit by non-linear least squares analysis to the McGhee and von Hippel equation (8945) governing random non-cooperative binding to a lattice,
# where r is the ratio of bound concentration of ruthenium to the concentration of DNA-phosphate, cf is the concentration of ruthenium free in soltuion, Kb the intrinsic binding constant, and the integer /, which measures the degree of anti-cooperativeity, is the size of a binding site in base pairs. The curves shown reflect the best fit after variation of two parameters: the intrinsic binding constant, Kb, and binding stie size, /. For those complexes were cooperatively was observed, the equation (89) incorporating a cooperativity parameter was used.
# Equilibrium dialysis experiments additionally offer the opportunity to examine any enantiomeric selectivities associated with binding. After dialysis of the DNA against the racemic mixture, optical activity observed in the dialysate refelects an enrichment in the dialysate in the less favored enantiomer. For most of the complexes, optical activity was found in the dialysate. Values for the extent of enantiomeric selectivity could not be quanitated in the absence of determinations of DE and assignments of absolute configuration. Assuming that the signs of the circular chroism in the ultraviolet ligand bands are the same for the these ligands as that for the parent phenanthroline complex, (90) we have assigned the absolute configuration of these complexes by comparison to spectra for enantiomers of Ru(phen)3^2+ and have compared levels of enantioselectivity qualitatively through measurements of circular dichroic intensity per rutheium bound. Based upon these assumptions, we find enantionmeric selectivities for the polyridyl complexes to reflect an enrichment in the isomer in the dialysate and the preferential binding of the isomer to the right-handed DNA. This observation is consistent with the preferential intercalation of isomers found earlier for Ru(phen)3^2+ in right-handed B-DNA. (63) We may also compare relative enantioselectivities for different ancillary ligands. […] The same comparison may be seen qualitatively between Ru(phen)2 DIP^2+ and Ru(bpy)2 DIP^2+.
# calf thymus DNA [3] = assay: Absorption titration with calf thymus DNA (half-reciprocal, hypochromism); format: binding; settings: in words; for binding to DNA: absorption changes too small for Kb
# Text: In plots of [DNA]/(εA -εF) versus [DNA], Kb is given by the ratio of the slope to intercept.
# calf thymus DNA [4] = assay: Spectroscopic properties (absorption, emission, lifetime) on binding to calf thymus DNA; settings: 7 μM Ru, 40:1 nucleotide/metal, 20° C.
# Description: Instrumentation: NMR spectra were recorded on a Varian VXR-300MHz spectormeter. FABS were performed using a VG Analytical 7070EQ Mas Spectrometer (78), and elemental analyses were done by Galbraith Laboratories in Nashville, Tenn. UV-Visible absorbance spectal were recorded on a Varian CARY-219 absorbance spectorphotometer. Extinction coefficients for the compounds were determined versus ruthenium concentrations obtained by atomic absorption spectroscopy with known ruthenium standards. [Ru(bpy)3 ]Cl2 solutions were also employed for these determinations as an internal standard. A varian AA-875 atomic absorption spectrophotometer was used for these determinations.
# Emission spectra were measured on a Perkin-Elmer LS-5 fluorescence spectrometer. The samples were excited at their corresponding isosbestic points. All the measurements were made at 20° C. in a thermostatted cuvette holder with 3 nm entrance slit and 10 nm exit slit. Ruthenium solutions employed were 7 μM in concentration and claf thymus DNA was added to a ration of 40:1 nucleotide/metal; ruthenuim-DNA soltuions were allowed to incubate for 15 minutes before enhanced spectra were recorded. The emission enhancement factors were measured by comparing the intensitites at the emission spectral mixima in the absence ad presence of DNA, under similar conditions.
# The limunescence lifetime measurements were done on a PRA SPC (single photon countining) spectometer with some minor modifications. The samples were excited with a nitrogen filled tnynratron gated flash lamp and the data were collected using a Tracor Northern 1710 multichannel analyser. The data were then transferred to a PDP-11/03 computer and deconvoluted with PRA software. […] concentrated solution of DNA (5mM DNA-phosphate) in buffer was added to a solution of the metal complex (4 μM) in buffer and allowed to equilibrate. Lifetimes of the samples were measured 0.5 hr after the metal complexes were mixed with DNA. All measurements were made at 20° C. and under air saturated conditions.
# Furthermore, for all the complexes, this electronic transition is perturbed on binding to DNA.
# pBR322 DNA = assay: Unwinding of supercoiled pBR322 DNA (topoisomerase I assay); settings: for EC50: read-out: Unwinding concentration, needed to unwind 11 of 22 supercoils, [DNA] 47 μM for phi complexes, 31.5 μM others, 60 min; for Unwinding Angle: per molecule of bound complex
# [5] = Table 12, dose 1 of 8, printed 9.14 × 10- μg/ml
# [6] = Table 12, dose 2 of 8, printed 1.82 × 10+ μg/ml
# [7] = Table 12, dose 3 of 8, printed 3.65 × 10+ μg/ml
# [8] = Table 12, dose 4 of 8, printed 7.31 × 10+ μg/ml
# [9] = Table 12, dose 5 of 8, printed 1.46 × 10+ μg/ml
# [10] = Table 12, dose 6 of 8, printed 2.92 × 10+ μg/ml
# [11] = Table 12, dose 7 of 8, printed 5.85 × 10+ μg/ml
# [12] = Table 12, dose 8 of 8, printed 1.17 × 10+ μg/ml
smiles,measurement,setting,value
[Rh+3].c1ccc(-c2ccnc3c2ccc2c(-c4ccccc4)ccnc23)cc1.c1ccc(-c2ccnc3c2ccc2c(-c4ccccc4)ccnc23)cc1.c1ccc(-c2ccnc3c2ccc2c(-c4ccccc4)ccnc23)cc1 [Rh(DIP)3],Infected Culture Response(%),HIV; [5],12.4%
same,Infected Culture Response(%),HIV; [6],18.5%
same,Infected Culture Response(%),HIV; [7],64.7%
same,Infected Culture Response(%),HIV; [8],45.4%
same,Infected Culture Response(%),HIV; [9],-.3%
same,Infected Culture Response(%),HIV; [10],-.9%
same,Infected Culture Response(%),HIV; [11],-1.8%
same,Infected Culture Response(%),HIV; [12],-1.8%
same,Infected Culture Response(%),"HIV; Tables 6-11, dose 3 of 8, 1.17 × 10- [sic] μg/ml",8.0%
same,activity in inhibiting the activity of HIV,HIV; in words,moderately active
same,Uninfected Culture Response(%),[1]; [5],92.9%
same,Uninfected Culture Response(%),[1]; [6],91.8%
same,Uninfected Culture Response(%),[1]; [7],82.4%
same,Uninfected Culture Response(%),[1]; [8],55.2%
same,Uninfected Culture Response(%),[1]; [9],-.9%
same,Uninfected Culture Response(%),[1]; [10],-1.6%
same,Uninfected Culture Response(%),[1]; [11],-.7%
same,Uninfected Culture Response(%),[1]; [12],-1.5%
same,Uninfected Culture Response(%),"[1]; Tables 2-5, dose 1 of 8, 1.25 × 10- [sic] μg/ml",110.1% and 100.3% and 133.6% and 105.1%
same,Uninfected Culture Response(%),"[1]; Tables 2-5, dose 2 of 8, 1.25 × 10- [sic] μg/ml",113.1% and 98.9% and 131.0% and 82.1%
same,Uninfected Culture Response(%),"[1]; Tables 2-5, dose 3 of 8, 1.25 × 10- [sic] μg/ml",106.0% and 89.3% and 108.6% and 65.1%
same,Uninfected Culture Response(%),"[1]; Tables 2-5, dose 8 of 8, 1.25 × 10+ [sic] μg/ml",-6% and -1.6% and -6.8% and -2.1%
same,Uninfected Culture Response(%),"[1]; Tables 6-11, dose 1 of 8",101.9% and 100.5% and 96.6% and 96.5% and 100.2% and 101.1%
same,Uninfected Culture Response(%),"[1]; Tables 6-11, dose 2 of 8",94.1% and 96.9% and 97.4% and 80.8% and 102.4% and 95.3%
same,Uninfected Culture Response(%),"[1]; Tables 6-11, dose 3 of 8",96.8% and 102.2% and 101.8% and 86.9% and 115.3% and 110.6%
same,Uninfected Culture Response(%),"[1]; Tables 6-11, dose 4 of 8",95.5% and 100.6% and 98.1% and 98.3% and 121.1% and 108.9%
same,Uninfected Culture Response(%),"[1]; Tables 6-11, dose 5 of 8",97.9% and 104.2% and 101.3% and 88.4% and 113.8% and 93.7%
"O=[N+]([O-])c1cc2cccnc2c2ncccc12.O=[N+]([O-])c1cc2cccnc2c2ncccc12.O=[N+]([O-])c1cc2cccnc2c2ncccc12.[Ru+2] [Ru(5-NO2phen)3^2+, [Ru(5-nitrophenanthroline)3)]Cl2]",Site size,calf thymus DNA [2],8-12 base pairs
same,binding affinity for DNA,calf thymus DNA [2]; in words,bind only poorly to DNA; also recorded: much lower than would be expected based upon their solvent accessible surfaces
same,binding to DNA,calf thymus DNA [3],bound very weakly
[Ru+2].c1ccc(-c2ccccn2)nc1.c1ccc(-c2ccccn2)nc1.c1ccc(-c2ccnc3c2ccc2c(-c4ccccc4)ccnc23)cc1 [Ru(bpy)2 (DIP)^2+],Km × 10) equilibrium dialysis (intrinsic binding constant Kb),calf thymus DNA [2],1.7(.3) × 10
same,Site size,calf thymus DNA [2],12-18 base pairs
same,binding to DNA,calf thymus DNA [3],bound very weakly
same,Emission Enchantment (I/Io),calf thymus DNA [4],1.13 I/Io
same,EC50,pBR322 DNA,170 µM
N=C1C(=N)c2ccccc2-c2ccccc21.[Ru+2].c1ccc(-c2ccccn2)nc1.c1ccc(-c2ccccn2)nc1 [Ru(bpy)2 (phi)^2+],Km × 10) equilibrium dialysis (intrinsic binding constant Kb),calf thymus DNA [2],160.(17) × 10
same,Site size,calf thymus DNA [2],4 base pairs
same,hypochromism / absorption change on DNA addition,calf thymus DNA [3],greatest change in absorption
same,Unwinding Angle,pBR322 DNA,17 degrees
same,EC50,pBR322 DNA,1.1 µM
[Ru+2].c1ccc(-c2ccccn2)nc1.c1cnc2c(c1)ccc1cccnc12.c1cnc2c(c1)ccc1cccnc12 [Ru(phen)2 (bpy)^2+],Site size,calf thymus DNA [2],5-7 base pairs
same,Emission Enchantment (I/Io),calf thymus DNA [4],1.43 I/Io
same,Unwinding Angle,pBR322 DNA,18 degrees
same,EC50,pBR322 DNA,11 µM
N=C1C(=N)c2ccccc2-c2ccccc21.N=C1C(=N)c2ccccc2-c2ccccc21.[Ru+2].c1ccc(-c2ccccn2)nc1 [Ru(phi)2 (bpy)^2+],Site size,calf thymus DNA [2],cooperative
same,aggregation in solution,calf thymus DNA [2]; in words,tend to agfregate in solution
same,binding curve type (cooperativity),calf thymus DNA [2]; in words,cooperatiove binding
same,binding affinity for DNA,"calf thymus DNA [2]; in words, listed as Ru(phi) 2 bpy^2+",in the range of those for Ru(phen)2phi^2+
same,binding affinity for DNA,"calf thymus DNA [2]; in words, listed as Ru(phi)2 bpy^2+",decreased affinity for DNA relative to Ru(bpy)2 ph^2+
same,hypochromism / absorption change on DNA addition,calf thymus DNA [3],greatest change in absorption
same,unwinding of the helix,pBR322 DNA; in words,lower concentration
same,EC50,pBR322 DNA,0.6 µM
